Data: ChEMBL document CHEMBL4368934, “Chemistry and biology of ophiobolin A and its congeners” (Bioorg Med Chem Lett, 2019)
≈ marks a conversion by molar mass, not a printed value.

Tests used:
[1] = Cytotoxicity against mouse P388/R cells after 72 hrs by MTT assay; format: functional, cell-based; conditions: P388, 72 h
[2] = test system: Panel NCI-60 (60 carcinoma cell lines); experiment: Cytotoxicity against human NCI60 cells; format: functional
[3] = Acute toxicity in iv dosed mouse; format: organism-based; conditions: in vivo
[4] = Acute toxicity in sc dosed mouse; format: organism-based; conditions: in vivo
[5] = test system: Plasmodium falciparum; experiment: Antimalarial activity against Plasmodium falciparum K1 by [3H]-hypoxanthine incorporation assay; format: functional, organism-based
[6] = test system: Mycobacterium tuberculosis; experiment: Antibacterial activity against Mycobacterium tuberculosis H37Ra by microplate alamar blue assay; format: functional, organism-based

Q: With `CC(C)=C/C=C/[C@H](C)C1=CC[C@]2(C)C[C@H]3[C@H](C(=O)C[C@@]3(C)O)/C(C=O)=C\C[C@@H]12` as the molecule, how does the IC50 [1] read?
A: Its IC50 is 270 to 650 nM.

Q: With `CC(C)=C[C@H]1C[C@H](C)[C@]2(CC[C@]3(C)C[C@H]4[C@H](C(=O)C[C@@]4(C)O)/C(C=O)=C\C[C@H]32)O1` [OPHIOBOLIN A] as the molecule, how does the GI50 [2] read?
A: The GI50 was 72 nM.

Q: And the CC50 ([2]; read-out: LC50 (the source's name))?
A: Its CC50 is 629 nM.

Q: And the LD50 [3]?
A: Its LD50 is 12 mg/kg.

Q: What about the LD50 [4] of the same molecule?
A: Its LD50 is 238 mg/kg.

Q: For `C/C(=C\[C@H](O)[C@@H](O)[C@H](C)[C@H]1CC[C@@]2(C)C[C@@H]3[C@H](C)CC(=O)[C@@H]3/C(C=O)=C\C[C@H]12)C(=O)O`, which IC50 [5] is on record?
A: The IC50 was 13 µg/mL (≈ 30.1 µM).

Q: What about the IC50 [6] of the same molecule?
A: The IC50 was 200 µg/mL (≈ 462 µM).
